Data as given in PubChem BioAssay (NCI).
Where “and” joins values, the source holds several entries; their conditions need not be identical. Equal entries are not always repeated.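 Briefly, cells in 96-well plates were exposed to five compound concentrations for 48 h, and endpoints were estimated by linear interpolation. Abbreviation: GI50, concentration required for 50% inhibition of growth. TGI denotes the concentration required for complete inhibition of growth.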

How the values were obtained:
Experiment in all cases: NCI tumour cell line growth inhibition, 48 h
IGROV1 ovarian = tested on: IGROV1 ovarian
DU-145 prostate = tested on: DU-145 prostate
HOP-62 NSCLC = tested on: HOP-62 NSCLC
SN12C renal = tested on: SN12C renal
U251 CNS = tested on: U251 CNS
MOLT-4 leukemia = tested on: MOLT-4 leukemia
SNB-19 CNS = tested on: SNB-19 CNS
OVCAR-4 ovarian = tested on: OVCAR-4 ovarian
SK-OV-3 ovarian = tested on: SK-OV-3 ovarian
SF-268 CNS = tested on: SF-268 CNS

Row | Compound | GI50 (IGROV1 ovarian) | TGI (IGROV1 ovarian) | GI50 (DU-145 prostate) | TGI (DU-145 prostate) | GI50 (HOP-62 NSCLC) | TGI (HOP-62 NSCLC) | GI50 (SN12C renal) | TGI (SN12C renal) | GI50 (U251 CNS) | TGI (U251 CNS) | GI50 (MOLT-4 leukemia) | TGI (MOLT-4 leukemia) [µM] | GI50 (SNB-19 CNS) | TGI (SNB-19 CNS) | GI50 (OVCAR-4 ovarian) | TGI (OVCAR-4 ovarian) | GI50 (SK-OV-3 ovarian) | TGI (SK-OV-3 ovarian) | GI50 (SF-268 CNS) | TGI (SF-268 CNS)
1 | C#C[C@]1(O)CC[C@H]2[C@@H]3CC=C4c5sc(Nc6cc(F)ccc6F)nc5CC[C@]4(C)[C@H]3CC[C@@]21C | 1.68 µM | 3.73 µM | 1.63 µM | 3.44 µM | 1.77 µM | 5.7 µM | 2.15 µM | 5.23 µM | 0.813 µM | 2.43 µM | 0.416 µM | 10.2 | 1.6 µM | 3.23 µM | 3.25 µM | 11.4 µM | 2.78 µM | 10.2 µM | 1.53 µM | 3.37 µM
2 | COc1ccc([C@H](CC(=O)O)N2CCN(CCCc3ccc4c(n3)NCCC4)C2=O)cn1 | > 38.1 µM | > 100 µM | 0.951 µM | 12.5 µM | 0.414 µM | > 100 µM | 0.515 µM |  | 0.934 µM | > 100 µM | > 100 µM | > 100 | 0.426 µM | > 100 µM | > 100 µM | > 100 µM | > 100 µM | > 100 µM | 0.754 µM | > 100 µM
3 | COC(=O)c1cc(-c2ccccc2)[nH]c1N/N=C/c1c(Cl)cccc1Cl | 0.412 µM |  | 0.322 µM | 1.14 µM | 0.471 µM | > 33.6 µM | 0.518 µM | > 36.6 µM | 0.332 µM | 3.58 µM | 0.437 µM | > 100 | 0.435 µM | 15.3 µM | 0.729 µM | > 28.6 µM | 0.39 µM | 3.26 µM | 0.436 µM | 8.25 µM
4 | COc1ccc(/C=C(/c2ccccc2)[N+](=O)[O-])c(OC)c1 | 1.47 µM | 2.95 µM | 1.44 µM | 2.92 µM | 2.42 µM | 4.77 µM | 1.47 µM | 3 µM | 1.48 µM | 3.15 µM | 2.14 µM | 6.77 | 1.65 µM | 3.05 µM | 1.55 µM | 2.92 µM | 3.1 µM | 9.57 µM | 1.65 µM | 3.14 µM
5 | NC(=N\N=C/c1ccc(O)cc1)/C(N)=N\N=C/c1ccc(O)cc1 | > 59.6 µM | > 100 µM | 20.2 µM | > 100 µM | 20.7 µM | 67.1 µM | > 31 µM | > 100 µM | 19.5 µM | > 100 µM | 0.623 µM | > 100 | 62.5 µM | > 100 µM | > 90.1 µM | > 100 µM | 44.8 µM | > 100 µM | 16.4 µM | > 100 µM
6 | COc1cc(/C=C/c2ccc(C)cc2)cc(OC)c1OC |  | > 91 µM |  | 13.7 µM |  | 16.3 µM |  | 30.1 µM |  | 23.9 µM |  | 25.6 |  | 38.2 µM |  | 44.7 µM |  | 39 µM |  | 11.2 µM
7 | O=C1NC(N/N=C\C(O)C(O)C(O)C(O)CO)=N/C1=C/c1ccccc1 (stereo unspecified) | > 100 µM and 16.2 µM | > 100 µM and 33.3 µM | > 100 µM and 17.6 µM | > 100 µM and 48.9 µM | > 100 µM and 19.4 µM | > 100 µM and 36.2 µM | 75.4 µM and 15.5 µM and > 100 µM | > 100 µM and 36.3 µM | > 100 µM and 17.5 µM | > 100 µM and 42.8 µM | 22.3 µM and 2.74 µM and 25.7 µM |  | 58 µM and 15.3 µM and > 100 µM | > 100 µM and 33.3 µM | 52.7 µM and 14.5 µM and > 100 µM | > 100 µM and 33.8 µM | > 100 µM and 20.2 µM | > 100 µM and 37.8 µM | > 100 µM and 15.2 µM | > 100 µM and 42.7 µM
8 | Nc1ccn(C2CC(F)C(CO)O2)c(=O)n1 (stereo unspecified) | > 100 µM | > 100 µM | > 100 µM | > 100 µM | > 100 µM | > 100 µM | > 100 µM | > 100 µM | > 100 µM | > 100 µM | > 100 µM | > 100 | > 100 µM | > 100 µM | > 100 µM | > 100 µM | > 100 µM | > 100 µM | > 100 µM | > 100 µM
9 | O=C(O)C[C@H](O)C[C@H](O)/C=C/c1c(C2CC2)nc2ccccc2c1-c1ccc(F)cc1 | 5.25 µM and 3.6 µM | 43.5 µM and > 100 µM | > 100 µM and 31 µM | > 100 µM | 15 µM and 6.22 µM | > 100 µM | 2.4 µM and 0.668 µM | > 100 µM | 1.62 µM and 0.302 µM | > 100 µM | > 100 µM and 54.5 µM | > 100 |  | > 100 µM | 22.8 µM and 8.04 µM | > 100 µM | 26.1 µM and 6.6 µM | > 100 µM | 0.659 µM and 0.381 µM | > 100 µM
10 | COc1ccccc1/C=C1\COc2ccc(-c3ccccc3)cc2C1=O | 4.69 µM | > 100 µM | 2.53 µM | 6.63 µM | 7.6 µM | > 100 µM | 3.17 µM | > 100 µM | 2.12 µM | 6.24 µM | 2.16 µM | > 100 | 4.2 µM | > 100 µM | 3.74 µM | > 100 µM | 3.7 µM | > 100 µM | 3.14 µM | 10.4 µM
11 | Cn1cnc(N)c(N=O)c1=O |  | > 10 µM |  | > 10 µM |  | > 10 µM |  | > 10 µM |  | > 10 µM |  | > 10 |  | > 10 µM |  | > 10 µM |  | > 10 µM |  | > 10 µM
12 | COc1ccc(-c2c(C)c(C(=O)O)nc(-c3ccc4c(O)c(OC)c5c(c4n3)=NC(C)(C)N=5)c2N)c(O)c1OC |  | > 100 µM |  | > 100 µM |  | 44 µM |  | 41.7 µM |  | 25.8 µM |  | 29.7 |  | 95 µM |  | > 100 µM |  | 65.6 µM |  | 21.6 µM
13 | Fc1ccc(-c2ncn(C3CCNCC3)c2-c2ccnc(Oc3ccc4c(c3)OCO4)n2)cc1 | 13.9 µM | > 25 µM | > 25 µM | > 25 µM | > 25 µM | > 25 µM | 16.7 µM | > 25 µM | 15.3 µM | > 25 µM | > 25 µM | > 25 | > 25 µM | > 25 µM | 19.7 µM | > 25 µM | 14.9 µM | > 25 µM | 24.4 µM | > 25 µM
14 | c1ccc(-c2nn3c(c2-c2ccnc4cc(OCCN5CCOCC5)ccc24)CCC3)nc1 | 29.6 µM | > 100 µM | 75.2 µM | > 100 µM | 99.4 µM | > 100 µM | 50.4 µM | > 100 µM | 97.3 µM | > 100 µM | 51.8 µM | > 100 | > 100 µM | > 100 µM | > 100 µM | > 100 µM | > 100 µM | > 100 µM | > 77.1 µM | > 100 µM
15 | O=[N+]([O-])c1cc[n+]([O-])c2ccccc12 | 0.259 µM | 1.03 µM | 0.0392 µM | 0.173 µM | 0.221 µM | 1.13 µM | 0.244 µM | 1.13 µM | 0.298 µM | 1.3 µM | 1.9 µM | 6.35 | 0.374 µM | 2.91 µM | 1.78 µM | 3.17 µM | 1.78 µM | 5.55 µM | 0.282 µM | 1.24 µM
16 | Oc1c(C(Nc2ccccc2Br)c2ccccc2)ccc2cccnc12 (stereo unspecified) | 3.47 µM | 22.9 µM | 4.81 µM | > 100 µM | 2.28 µM | 19.7 µM | 2.68 µM | 35.1 µM | 0.674 µM | 13.4 µM | 1.68 µM | 7.56 | 2.33 µM | > 100 µM | 1.3 µM | 55 µM | 3.24 µM | 78.5 µM | 1.7 µM | 17.3 µM
17 | O=[N+]([O-])c1ccc(NN=C2CN3CCN(C2)c2ccccc23)c([N+](=O)[O-])c1 |  | > 100 µM |  | > 100 µM |  | > 100 µM |  | > 100 µM |  | > 100 µM |  | > 100 |  | > 100 µM |  | > 100 µM |  | > 100 µM |  | > 100 µM
18 | O=c1c2c([nH]c3nccn13)CCC2 |  | > 10 µM |  | > 10 µM |  | > 10 µM |  | > 10 µM |  | > 10 µM |  | > 10 |  | > 10 µM |  | > 10 µM |  | > 10 µM |  | > 10 µM
19 | [2H]C([2H])([2H])NC(=O)c1nnc(NC(=O)C2CC2)cc1Nc1cccc(-c2ncn(C)n2)c1OC | 6.96 µM | > 100 µM | 14.9 µM | > 100 µM | 15.5 µM | > 100 µM | 34.5 µM | > 100 µM | 59.5 µM | > 100 µM | 0.934 µM | > 100 | > 100 µM | > 100 µM | 18.2 µM | > 100 µM | 5.02 µM | 48.9 µM | 45.7 µM | > 100 µM
20 | COc1c(C(C)=O)c(OCCCCOc2c(C(C)=O)c(OC)c3ccoc3c2OC)c(OC)c2occc12 | 7.58 µM | > 100 µM | > 100 µM | > 100 µM | > 100 µM | > 100 µM | > 100 µM | > 100 µM | > 28.1 µM | > 100 µM | 1.23 µM | 3.1 | > 28.9 µM | > 100 µM | 3.39 µM | > 100 µM | > 100 µM | > 100 µM | > 42.1 µM | > 100 µM
21 | C1=C(c2ccccc2)C(N2CCOCC2)Oc2ccccc21 (stereo unspecified) |  | > 100 µM |  | > 100 µM |  | > 100 µM |  | > 100 µM |  | > 100 µM |  | > 100 |  | > 100 µM |  | > 100 µM |  | > 100 µM |  | > 100 µM
22 | CCCCNNC(=O)c1ccc(Br)cc1 | 8.35 µM | > 50 µM | 2.6 µM | > 50 µM | 2.98 µM | > 34.2 µM | 15.4 µM | > 50 µM | 3.78 µM | 28.5 µM | 2.51 µM | > 50 | 11.2 µM | > 50 µM | 4.79 µM | > 50 µM | 8.54 µM | > 50 µM | 8.41 µM | > 50 µM
